The values that follow come from patent US10004701B2, “Methods and compositions for treating infection” (UNIVERSITY OF ROCHESTER, priority 2012, dated 2018).

SMILES strings stand for the structures. Structures can show the parent of a compound that is named as a salt. Where two headings read alike, the source gives them in different places.

What all share (assay): AK assay 384-well format, Prestwick library screening
Assay [1] deals with S. aureus strain USA300-0114. It is filed as cell-based, Staphylococcus aureus. The conditions noted are these: 50 μM final drug concentration; for fold induction at 50 µM: Staphylococcus aureus, USA300, 3 h.
For assay [2], the system named is P. aeruginosa. It is filed as cell-based, Pseudomonas aeruginosa. The following applies: 50 μM final drug concentration; for fold induction at 50 µM: Pseudomonas aeruginosa, 3 h.
For assay [3], the system named is E. faecium. The class given is cell-based, Enterococcus faecium. The conditions noted are these: 50 μM final drug concentration; for fold induction at 50 µM: Enterococcus faecium, 3 h.
Assay [4] concerns E. cloacae. It is filed as cell-based, Enterobacter cloacae. The conditions noted are these: 50 μM final drug concentration; for fold induction at 50 µM: Enterobacter cloacae, 3 h.
The subject of assay [5] is K. pneumoniae. It is filed as cell-based, Klebsiella pneumoniae. The following applies: 50 μM final drug concentration; for fold induction at 50 µM: Klebsiella pneumoniae, 3 h.
Assay [6] concerns A. baumannii strain 98-37-09. The class given is cell-based, Acinetobacter baumannii. The following applies: 50 μM final drug concentration; for fold induction at 50 µM: Acinetobacter baumannii, 983709, 3 h.
For assay [7], the system named is E. coli. It is filed as cell-based, Escherichia coli. The following applies: for fold induction at 50 µM: Escherichia coli, 3 h.
Where [8] appears, read: planktonic, cutoff for positive 3-fold increase, read-out: AK-based Prestwick Library Screening Results, S. aureus (fold increase in extracellular AK activity).
The mark [9] stands for this setting: planktonic, cutoff for positive 3-fold increase, read-out: AK-based Prestwick Library Screening Results, P. aeruginosa (fold increase in extracellular AK activity).
[10] abbreviates: planktonic, cutoff for positive 3-fold increase, read-out: AK-based Prestwick Library Screening Results, E. faecium (fold increase in extracellular AK activity).
Setting [11] is: planktonic, cutoff for positive 3-fold increase, read-out: AK-based Prestwick Library Screening Results, E. cloacae (fold increase in extracellular AK activity).
Setting [12] is: planktonic, cutoff for positive 3-fold increase, read-out: AK-based Prestwick Library Screening Results, K. pneumoniae (fold increase in extracellular AK activity).
The mark [13] stands for this setting: planktonic, cutoff for positive 3-fold increase, read-out: AK-based Prestwick Library Screening Results, A. baumannii (fold increase in extracellular AK activity).
Setting [14] is: 50 μM final drug concentration, planktonic, cutoff for positive 3-fold increase, read-out: AK-based Prestwick Library Screening Results, E. coli (fold increase in extracellular AK activity).
Setting [15] is: planktonic S. aureus, 384-well, […], read-out: AK-based Prestwick Library Screening Results: S. aureus (increase in extracellular AK activity).
The mark [16] stands for this setting: planktonic P. aeruginosa, 384-well, […], read-out: AK-based Prestwick Library Screening Results: P. aeruginosa (increase in extracellular AK activity).
[17] abbreviates: planktonic E. faecium, 384-well, […], read-out: AK-based Prestwick Library Screening Results: E. faecium (increase in extracellular AK activity).
[18] abbreviates: planktonic E. cloacae, 384-well, […], read-out: AK-based Prestwick Library Screening Results: E. cloacae (increase in extracellular AK activity).
The mark [19] stands for this setting: planktonic K. pneumoniae, 384-well, […], read-out: AK-based Prestwick Library Screening Results: K. pneumoniae (increase in extracellular AK activity).
The mark [20] stands for this setting: planktonic A. baumannii, 384-well, […], read-out: AK-based Prestwick Library Screening Results: A. baumannii (increase in extracellular AK activity).
Where [21] appears, read: planktonic, cutoff for positive-scoring molecules 3-fold increase.

`CC(=O)O[C@H]1C[C@@]2(C)[C@@H](C[C@@H](O)[C@H]3[C@@]4(C)CC[C@@H](O)[C@@H](C)[C@@H]4CC[C@@]32C)/C1=C(\CCC=C(C)C)C(=O)O` [Fusidic acid sodium salt]: the fold induction at 50 µM in assay [1] (setting [8]) was 4.2; in assay [2] (setting [9]), 1.1; in assay [3] (setting [10]), 1.1; in assay [4] (setting [11]), 1.4; in assay [5] (setting [12]) it was 1.1; in assay [6] (setting [13]), 1.3. Besides, the fold induction at 50 µM in assay [7] (setting [14]) was determined as 1.1.

`Nc1ccccc1S(N)(=O)=O` [Compound 2-Aminobenzenesulfonamide, 2-Aminobenzenesulfonamide]: the fold induction at 50 µM in assay [1] (planktonic, cutoff for positive-scoring molecules 3-fold increase, read-out: AK-based Prestwick Library Screening Results, S. aureus (fold increase in extracellular AK activity)) stood at 0.8; in assay [2] (planktonic, cutoff for positive-scoring molecules 3-fold increase, read-out: AK-based Prestwick Library Screening Results, P. aeruginosa (fold increase in extracellular AK activity)), 0.9; in assay [3] (planktonic, cutoff for positive-scoring molecules 3-fold increase, read-out: AK-based Prestwick Library Screening Results, E. faecium (fold increase in extracellular AK activity)), 0.9; in assay [4] (planktonic, cutoff for positive-scoring molecules 3-fold increase, read-out: AK-based Prestwick Library Screening Results, E. cloacae (fold increase in extracellular AK activity)), 1.4; in assay [5] (planktonic, cutoff for positive-scoring molecules 3-fold increase, read-out: AK-based Prestwick Library Screening Results, K. pneumoniae (fold increase in extracellular AK activity)), 0.7; in assay [6] (planktonic, cutoff for positive-scoring molecules 3-fold increase, read-out: AK-based Prestwick Library Screening Results, A. baumannii (fold increase in extracellular AK activity)) it was 0.9. Besides, the fold induction at 50 µM in assay [7] (50 μM final drug concentration, planktonic, cutoff for positive-scoring molecules 3-fold increase, read-out: AK-based Prestwick Library Screening Results, E. coli (fold increase in extracellular AK activity)) was determined as 1.1.

For `N[C@@H](Cc1ccc(O)c(O)c1)C(=O)O` [Levodopa], the fold induction at 50 µM in assay [1] (384-well format, cutoff for positive-scoring molecules 3-fold increase, read-out: AK-based Prestwick Library Screening Results, S. aureus (increase in extracellular AK activity)) was 0.5; in assay [2] (384-well format, cutoff for positive-scoring molecules 3-fold increase, read-out: AK-based Prestwick Library Screening Results, P. aeruginosa (increase in extracellular AK activity)), 0.5; in assay [3] (384-well format, cutoff for positive-scoring molecules 3-fold increase, read-out: AK-based Prestwick Library Screening Results, E. faecium (increase in extracellular AK activity)) it was 0.8; in assay [4] (384-well format, cutoff for positive-scoring molecules 3-fold increase, read-out: AK-based Prestwick Library Screening Results, E. cloacae (increase in extracellular AK activity)), 0.8; in assay [5] (384-well format, cutoff for positive-scoring molecules 3-fold increase, read-out: AK-based Prestwick Library Screening Results, K. pneumoniae (increase in extracellular AK activity)), 0.6; in assay [6] (384-well format, cutoff for positive-scoring molecules 3-fold increase, read-out: AK-based Prestwick Library Screening Results, A. baumannii (increase in extracellular AK activity)) it was 0.7. Besides, the fold induction at 50 µM in assay [7] (50 μM final drug concentration, 384-well format, cutoff for positive-scoring molecules 3-fold increase, read-out: AK-based Prestwick Library Screening Results, E. coli (increase in extracellular AK activity)) was 0.6.

Take `O=C(O)c1ccccc1Nc1cccc(C(F)(F)F)c1` [Flufenamic acid]: the fold induction at 50 µM came out at 0.5 in assay [1] (setting [15]); 1.1 in assay [2] (setting [16]); 1 in assay [3] (setting [17]); 1.8 in assay [4] (setting [18]); 1 in assay [5] (setting [19]); 1.3 in assay [6] (setting [20]). Also, the fold induction at 50 µM in assay [7] (planktonic E. coli, 50 μM final drug concentration, 384-well, […], read-out: AK-based Prestwick Library Screening Results: E. coli (increase in extracellular AK activity)) is 1.

For `CN(C)CCCN1c2ccccc2Sc2ccc(C(F)(F)F)cc21` [Triflupromazine hydrochloride], the fold induction at 50 µM was 1.1 in assay [1] (setting [15]); 1 in assay [2] (setting [16]); 0.9 in assay [3] (setting [17]); 1.6 in assay [4] (setting [18]); 1 in assay [5] (setting [19]); 1.5 in assay [6] (setting [20]). Further, in assay [7] (read-out: AK-based Prestwick Library Screening Results: E. coli (increase in extracellular AK activity)), the fold induction at 50 µM worked out at 1.1.

`O=C(N/N=C/c1ccc([N+](=O)[O-])o1)c1ccc(O)cc1` [Nifuroxazide]: the fold induction at 50 µM was found to be 0.7 in assay [1] (setting [8]); 1.2 in assay [2] (setting [9]); 1 in assay [3] (setting [10]); 1.5 in assay [4] (setting [11]); 1.8 in assay [5] (setting [12]); 1.1 in assay [6] (setting [13]). Besides, in assay [7] (setting [14]), the fold induction at 50 µM was 1.2.

For the molecule `O=C1C=C2C=C[C@@H]3C[C@@]2(O1)[C@H]1CCCCN31` [Securinine], the fold induction at 50 µM in assay [1] ([…], read-out: AK-based Prestwick Library Screening Results, S. aureus (fold increase in extracellular AK activity)) was determined as 1.1; in assay [2] ([…], read-out: AK-based Prestwick Library Screening Results, P. aeruginosa (fold increase in extracellular AK activity)) it was 1.2; in assay [3] ([…], read-out: AK-based Prestwick Library Screening Results, E. faecium (fold increase in extracellular AK activity)) it was 1; in assay [4] ([…], read-out: AK-based Prestwick Library Screening Results, E. cloacae (fold increase in extracellular AK activity)), 1.6; in assay [5] ([…], read-out: AK-based Prestwick Library Screening Results, K. pneumoniae (fold increase in extracellular AK activity)) it was 0.8; in assay [6] ([…], read-out: AK-based Prestwick Library Screening Results, A. baumannii (fold increase in extracellular AK activity)) it was 1.1. For the same molecule, the fold induction at 50 µM in assay [7] (50 μM final drug concentration, […], read-out: AK-based Prestwick Library Screening Results, E. coli (fold increase in extracellular AK activity)) amounted to 1.3.

Turning to `Cl.Cl.c1ccc2c3c([nH]c2c1)C1C2CCC(C4CCCNC42)N1CC3` (centres unmarked) [Nitrarine dihydrochloride], in assay [1] (setting [21]), the “AK-based Prestwick Library Screening Results, S. aureus (fold increase in extracellular AK activity)” value turned out to be 1.3. Also, the “AK-based Prestwick Library Screening Results, P. aeruginosa (fold increase in extracellular AK activity)” value in assay [2] (setting [21]) came out at 1.1. In addition, in assay [3] (setting [21]), the “AK-based Prestwick Library Screening Results, E. faecium (fold increase in extracellular AK activity)” value worked out at 1.0. For the same molecule, in assay [4] (setting [21]), the “AK-based Prestwick Library Screening Results, E. cloacae (fold increase in extracellular AK activity)” value is 1.4. Also, the “AK-based Prestwick Library Screening Results, K. pneumoniae (fold increase in extracellular AK activity)” value in assay [5] (setting [21]) is given as 1.1. Moreover, the “AK-based Prestwick Library Screening Results, A. baumannii (fold increase in extracellular AK activity)” value in assay [6] (setting [21]) is recorded as 1.0. In addition, the “AK-based Prestwick Library Screening Results, E. coli (fold increase in extracellular AK activity)” value in assay [7] (50 μM final drug concentration, planktonic, […]) is given as 1.2.
